Results on 15 compounds are retold here after PubChem BioAssay (NCI).

Test systems include TK-10 renal; SF-295 CNS; M14 melanoma; T-47D breast; MCF7 breast; RXF 393 renal; MDA-MB-231 breast; U251 CNS; MOLT-4 leukemia; MALME-3M melanoma.
Common to all, as to experiment: DTP human tumour cell line panel, 48 h

Each structure is given as a SMILES string.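 Interpolation was linear, between the two tested concentrations surrounding the appropriate level; five concentrations were tested over 48 hours in 96-well plates. TGI marks complete inhibition of growth.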

Regarding `C/C(Cl)=N\OC(=O)Nc1ccc([N+](=O)[O-])cc1`, the TGI came to 27.8 µM in the assay on TK-10 renal; 31.8 µM with SF-295 CNS; 26.1 µM with M14 melanoma; 36.8 µM in the assay with T-47D breast; 5.73 µM in the assay on MCF7 breast; 30.4 µM in the assay on RXF 393 renal. The TGI is 37.1 µM with MDA-MB-231 breast, 33.8 µM in the assay on U251 CNS, 3.97 µM in the assay with MOLT-4 leukemia and 7.95 µM in the assay with MALME-3M melanoma.
Take `O=c1oc2ncccc2n1Cc1ccc([N+](=O)[O-])cc1`: the TGI in the assay on TK-10 renal, in the assay on SF-295 CNS, with M14 melanoma, in the assay on T-47D breast, with MCF7 breast and in the assay on RXF 393 renal was more than 100 µM in each case. Further, the TGI in the assay with MDA-MB-231 breast, with U251 CNS, in the assay with MOLT-4 leukemia and with MALME-3M melanoma was more than 100 µM each time.
Take `CCOC(=O)C(SCCO)C(C(=O)OCC)n1ccc(N)nc1=O` (stereo unspecified): the TGI in the assay with TK-10 renal, in the assay on SF-295 CNS, in the assay with M14 melanoma, in the assay with T-47D breast, in the assay on MCF7 breast and in the assay with MDA-MB-231 breast was more than 100 µM in each case. Further, the TGI in the assay on U251 CNS, with MOLT-4 leukemia and with MALME-3M melanoma was more than 100 µM each time.
On to `C/C(CC(O)(C(F)(F)F)C(F)(F)F)=N\N`, for which the TGI with TK-10 renal, in the assay with SF-295 CNS, in the assay on M14 melanoma, in the assay on T-47D breast, in the assay with MCF7 breast and with RXF 393 renal was more than 10 µM throughout. The TGI with MDA-MB-231 breast, in the assay on U251 CNS, with MOLT-4 leukemia and in the assay with MALME-3M melanoma was more than 10 µM in each case.
For `CN1CCc2c(sc3nc(Nc4ccccc4)n(N)c(=O)c23)C1`, the TGI was more than 100 µM with TK-10 renal; more than 100 µM in the assay on SF-295 CNS; 88 µM in the assay with M14 melanoma; more than 100 µM in the assay on T-47D breast; more than 100 µM with MCF7 breast; more than 100 µM in the assay with RXF 393 renal. Besides, the TGI with MDA-MB-231 breast and with MOLT-4 leukemia was more than 100 µM in each case.
Regarding `COCCc1c(C)c(C#N)c2n(C)c3ccccc3n2c1=O`, the TGI with TK-10 renal, in the assay with SF-295 CNS, in the assay on M14 melanoma, with T-47D breast, with MCF7 breast and in the assay on RXF 393 renal was more than 10 µM each time. In addition, the TGI in the assay on MDA-MB-231 breast, in the assay with U251 CNS, in the assay with MOLT-4 leukemia and in the assay on MALME-3M melanoma was more than 10 µM in each case.
Take `C=CCCCCOC1C=CC(OC(C)=O)C(COC(C)=O)O1` (stereo unspecified): the TGI in the assay on TK-10 renal, in the assay on SF-295 CNS, with M14 melanoma, in the assay on T-47D breast, in the assay with MCF7 breast and in the assay on RXF 393 renal was more than 100 µM each time. The TGI in the assay on MDA-MB-231 breast, with U251 CNS, in the assay on MOLT-4 leukemia and in the assay on MALME-3M melanoma was more than 100 µM in each case.
In the case of `O=C(CSc1nc2ccc(I)cc2c(=O)n1Cc1ccccc1)N/N=C/c1ccccc1`, the TGI with TK-10 renal was 36.1 µM; in the assay on SF-295 CNS it was 30.9 µM; with M14 melanoma, more than 100 µM; in the assay with T-47D breast, 79.9 µM; in the assay on MCF7 breast it was more than 100 µM; in the assay on RXF 393 renal, 26.7 µM. The TGI in the assay on MDA-MB-231 breast is 43.3 µM; in the assay with U251 CNS, 33.3 µM; in the assay with MOLT-4 leukemia, more than 100 µM.
With `O=C(CC(=O)c1ccncc1)c1ccccc1`, the TGI in the assay on TK-10 renal, in the assay on SF-295 CNS, in the assay on M14 melanoma, with T-47D breast, in the assay on MCF7 breast and in the assay on RXF 393 renal was more than 100 µM throughout. Further, the TGI with MDA-MB-231 breast was more than 100 µM; in the assay with U251 CNS it was more than 100 µM; in the assay with MOLT-4 leukemia, more than 100 µM; in the assay on MALME-3M melanoma, more than 89.2 µM.
`O=C1CCc2c3c(c4c([nH]c5ccccc54)c2CC1)C(=O)NC3=O`: the TGI came to 39.6 µM in the assay on TK-10 renal; 33.5 µM with SF-295 CNS; 44.6 µM with M14 melanoma; 6.01 µM with T-47D breast; 81 µM with MCF7 breast; 32.2 µM with RXF 393 renal. Besides, the total growth inhibition concentration (TGI) is more than 100 µM in the assay on MDA-MB-231 breast, more than 100 µM in the assay on U251 CNS, 4.05 µM with MOLT-4 leukemia and 12.6 µM with MALME-3M melanoma.
For `CCN(CC)CCN1c2ccccc2Sc2ccc3ccccc3c21`, the TGI was 23.9 µM in the assay on TK-10 renal; 26.4 µM in the assay on SF-295 CNS; 8.52 µM in the assay on M14 melanoma; 19.1 µM in the assay on T-47D breast; 23.6 µM in the assay with MCF7 breast; 9.5 µM with RXF 393 renal. Moreover, the TGI with MDA-MB-231 breast was 18.3 µM; in the assay on U251 CNS it was 22.5 µM; in the assay on MOLT-4 leukemia, 7.66 µM; in the assay with MALME-3M melanoma it was 32.5 µM.
For the compound `CC(=O)OCC1C(C(C)OC(C)=O)CCC2C1CCC1(C)C(OC(C)=O)CCC21` (stereo unspecified), the TGI with TK-10 renal was more than 100 µM; in the assay with SF-295 CNS it was 41.4 µM; in the assay on M14 melanoma it was 31.9 µM; in the assay on T-47D breast, 65.7 µM; in the assay on MCF7 breast, 33.8 µM; in the assay on MDA-MB-231 breast it was 30.7 µM. Also, the TGI in the assay on U251 CNS was determined as 30.5 µM; with MOLT-4 leukemia, 41.8 µM; in the assay on MALME-3M melanoma it was 37 µM.
As to `NC(=O)c1cnc2sc3ccccc3n2c1=O`, the TGI in the assay with TK-10 renal, with SF-295 CNS, in the assay on M14 melanoma, in the assay on T-47D breast, with MCF7 breast and in the assay with RXF 393 renal was more than 100 µM throughout. For the same compound, the TGI in the assay on MDA-MB-231 breast, in the assay on MOLT-4 leukemia and in the assay with MALME-3M melanoma was more than 100 µM throughout.
`C=C1c2nc3ccccc3n2C=C(c2ccc(Cl)cc2)N1c1ccc(OCCN2CCOCC2)cc1`: the TGI was more than 100 µM in the assay with TK-10 renal; 58.8 µM in the assay with M14 melanoma; more than 100 µM in the assay with T-47D breast; more than 100 µM with MCF7 breast; more than 100 µM in the assay with RXF 393 renal; more than 100 µM with MDA-MB-231 breast. Moreover, the total growth inhibition concentration (TGI) in the assay with U251 CNS and in the assay on MALME-3M melanoma was more than 100 µM throughout.
Turning to `CCCCCCc1nn2c(-c3ccc(C)cc3)nnc2s1`, the TGI in the assay on TK-10 renal, in the assay with SF-295 CNS, in the assay with M14 melanoma, in the assay with T-47D breast, in the assay on MCF7 breast and in the assay with RXF 393 renal was more than 100 µM throughout. Besides, the TGI in the assay on MDA-MB-231 breast, in the assay on U251 CNS and with MOLT-4 leukemia was more than 100 µM in each case.

Broadly, the TGI is the concentration at which net growth stops. A high value points to less potent growth arrest.
